Test results reported in patent US6465432B1, “Isolated antioxidant peptides form casein and methods for preparing, isolating, and identifying antioxidant peptides” (Kraft Food Holdings, Inc., priority 2000, dated 2002).
No end group written: not given here.

How the values were obtained:
Type in all cases: biochemical
[1] = ABTS total antioxidative activity assay (ABTS, metmyoglobin, H2O2; absorbance at 734 nm)
Procedure: (§1) Phase I fractions of the protein hydrolysates generated with various proteases in Example 1 were analyzed for their ability to prevent accumulation of free radicals derived from 2,2′-azino-bis(3-ethylbenzthiazoline-6-sulfonic acid) (ABTS). Both total antioxidative activity and total reducing power of protein hydrolysate using ABTS and preformed ABTS radical, respectively, were used. These two model systems allowed mechanistic information of antioxidative activity of protein hydrolysates to be obtained. Furthermore, the analysis provided specific data related to whether the protein hydrolysates have the capacity of scavenging radicals in an oxidation system.
Total antioxidant assays using ABTS were performed according to Cox et al., “Biological assays for cellular transformation,” Methods in Enzymology 238:277 (1994); and Plumb et al., “Are Whole Extracts and Purified Glucosinolates from Cruciferous Vegetables Antioxidants?,” Free Rad. Res. 25:75 (1996). The assay was performed in a total volume of 1.2 ml. Twenty-five microliters of sample (Phase I hydrolysate fractions as described in Example 1 or Trolox standard (2.5 mM) (Aldrich, Milwaukee, Wis.) were combined with 100 μl of ABTS solution (2.5 mM ABTS (Sigma, St. Louis, Mo.) in PBS), 180 μl of MetMb solution (50 μM Metmyoglobin made from mixing 1:1 v/v of 100 µM myoglobin (Sigma, St. Louis, Mo.) and 100 μM Metmyoglobin (Sigma, St. Louis, Mo.); and 100 μM potassium ferricyanide (Aldrich, Milwaukee, Wis.) in PBS), and 775 μl PBS. One-hundred and 20 microliters of 10 mM H2O2 were then added. The mixture was agitated and absorbance was read at 734 nm over a period of 10-15 min.

[2] = Total reducing power assay using ABTS radical; conditions: for antioxidative activity in the ABTS radical assay: HPLC-isolated fractions of Phase I, concentrations not adjusted after HPLC; for reducing power in terms of scavenging pre-formed ABTS radical: synthesized peptide 0.0832 mM, Trolox 0.0208 mM, n=5
Procedure: as §1
Total reducing power assays using ABTS radical were performed according to the methods of Pellegrini et al., “Screening of Dietary Carotenoids and Carotenoid-Rich Fruit Extracts for Antioxidant Activities Applying 2,2 ′-Azinobis(3-ethylenebenzothiazoline-6-sulfonic acid Radical Cation Decolorization Assay,” Methods in Enzymology 299:379 (1999). This assay measures antioxidant capability as reducing power in terms of scavenging pre-formed ABTS radical. Equal volumes of lOmM PBS and sample (Phase I hydrolysate fractions as described in Example 1) were combined and 2.5 times the total volume (i.e., PBS and sample combined) of a working solution of ABTS radical was added. The mixture was agitated and absorbance at 734 nm was measured after 10 minutes of incubation at […]. Acetone or PBS was used as a blank where appropriate. The working solution of ABTS radical was prepared by adding 1 volume of a ABTS radical stock solution to 80 volumes of 10 mM PBS (pH 7.0) and adding, if necessary, PBS or ABTS stock solution to adjust the absorbance to about 0.83 at 734 nm. The ABTS radical stock solution contained 2.5 mM K2S2O8 and 6.9 mM ABTS.

[3] = Hydroxyl radical (Fenton) assay; conditions: synthesized peptide 0.2083 mM, Trolox 0.0521 mM; n=5; FIG. 22
Procedure: An analysis was performed to evaluate the ability of the peptide samples (Phase I and II hydrolysate fractions as described in Example 1) to quench the hydroxyl radical. The hydroxyl radical is an exceptionally active agent that reacts nonselectively with all organic constituents of food. Consequently, it can directly initiate lipid oxidation in food systems. The capacity to quench hydroxyl radicals, therefore, should theoretically be a very important characteristics for food antioxidants.
The hydroxyl radical (Fenton) assay was performed according to the methods of Lee, B. J., et al., “Antioxidant effects of L-carnosine on liposomes and beef homogenates,” J. Food Sci. 62:931 (1997). For this assay, 945 μl buffer (0.1 M phosphate buffer, pH 7.4), 60 μl EDTA-FeCl3 solution (92 mM EDTA, 26 mM FeCI3 in 0.1 M phosphate buffer pH 7.4), 25 μl sample (Phase I and II hydrolysate fractions as described in Example 1 or Trolox standard (2.5 mM)), and 120 μl of 1 mM H2O2 were combined. To this solution, 50 μl of a deoxyribose-ascorbic acid solution (67 mM deoxyribose, 4.8 mM ascorbic acid, in 01 M phosphate buffer pH 7.4) was added, and the solution was mixed and incubateded at 37° C. for 1 hr. […] Absorbance of the solution is then read at 532 nm after cooling to room temperature. […]

[4] = synthesized peptide 0.0832 mM, Trolox 0.0208 mM, n=5

Row | Molecule | antioxidative activity in the ABTS radical assay [2] | reducing power in terms of scavenging pre-formed ABTS radical [2] | total antioxidative activity [1, 4] | further results
1 | Cc1c(C)c2c(c(C)c1O)CCC(C)(C(=O)O)O2 (centres unmarked) [Trolox, reference compound] |  |  |  | total antioxidative activity ([1]; Phase I of milk protein hydrolysates, FIG. 2, PBS negative control, Trolox positive control): typical delay of initiation or lag phase of the oxidation system; time until after which oxidation was virtually totally suppressed ([1]; Trolox 0.0208 mM): > 2 h
2 | LAYFYPE (Bovine) [Leu-Ala-Tyr-Phe-Tyr-Pro-Glu] | strong antioxidative activity |  |  | 
3 | YLGYLE [fragment of alpha S1-casein (amino acid residues 106˜111) from bovine milk] | strong antioxidative activity |  |  | 
4 | RYLGYLE (Bovine) [Arg-Tyr-Leu-Gly-Tyr-Leu-Glu, fragment of alpha S1-casein (amino acid residues 105˜111) from bovine milk] | strong antioxidative activity | statistically significant when compared to PBS controls |  | 
5 | AYFYPE [fragment of alpha S1-casein (amino acid residue 158˜163) from bovine milk] | strong antioxidative activity | strong antioxidative activity | significant (p<0.05) when compared to PBS controls | time within which oxidation reached maximal levels ([1]; synthesized peptide 0.0832 mM): ≤ 1.5 h
6 | Gln-Phe-Tyr [linear QFY] |  | significantly (p<0.05) scavenged pre-formed ABTS radical | have antioxidative activity | capacity to quench hydroxyl radicals [3]: possess the capacity to quench hydroxyl radicals
7 | Gln-Phe-Tyr [cyclic QFY] (not fully specified (bridges); printed as Gln-Phe-Tyr [cyclic QFY]; also: cyclic, kind not given here) [cyclic tripeptide, fragment of alpha S1-casein (amino acid residues 167-169) from bovine milk] | strong antioxidative activity | significantly (p<0.05) scavenged pre-formed ABTS radical | slightly stronger antioxidative activity | capacity to quench hydroxyl radicals [3]: slightly stronger capacity to quench hydroxyl radicals
